According to patent US9005670B2, “Use of histone acetyltransferase inhibitors as novel anti-cancer therapies” (The Johns Hopkins University, priority 2010, dated 2015):

Experiments:
Mel-1 melanoma cells = assay: combination with chemotherapy, total cell number; format: cell-based; conditions: 2 μM C646, 24 hours before chemotherapy agent
Description: The cells were grown for 24 hours in medium. The cells were given fresh medium and either 1 μM of cisplatin or 200 μM of temozolamide was added. Total cell number was counted on Day 0, at 24 hours, and 48 hours after addition of cisplatin or temozolamide.
After 24 hours, the treated and mock-treated cells were given fresh medium, and the cells were treated with cisplatin or temozolamide for 48 hours.

[1] = reaction with beta-mercaptoethanol (absorbance spectrum); format: physicochemical; conditions: 10 mM beta-mercaptoethanol, up to one hour
[2] = target: AANAT (arylalkylamine N-acetyltransferase) (Ovis aries, UniProt Q29495); assay: AANAT coupled spectrophotometric assay; format: biochemical; conditions: 10 μM compound; read-out: Percent inhibition of acetyltransferase, AANAT
Chain of AANAT (arylalkylamine N-acetyltransferase) (Q29495 whole entry): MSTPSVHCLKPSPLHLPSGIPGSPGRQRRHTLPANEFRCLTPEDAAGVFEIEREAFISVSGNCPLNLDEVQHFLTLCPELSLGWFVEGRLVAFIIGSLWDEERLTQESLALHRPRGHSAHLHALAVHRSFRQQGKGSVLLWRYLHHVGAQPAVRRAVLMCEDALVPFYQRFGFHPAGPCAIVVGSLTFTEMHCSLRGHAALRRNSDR

[3] = system: three melanoma and three non-small cell lung cancer lines; assay: 3H-thymidine incorporation, melanoma and lung cancer lines; format: cell-based, human; conditions: 24 hours; C646 10 μM, Lys-CoA-Tat 25 μM
Description: The following cell lines were used: WM35 (melanoma), WM983A (melanoma), 1205Lu (melanoma), H23 (NSCLC), H838 (NSCLC), and H1395 (NSCLC). Melanoma cells were maintained in Dulbecco's Modified Eagle Medium. NSCLCs were maintained in RPMI Medium 1640. Both types of media were supplemented with 10% fetal bovine serum (FBS), penicillin-streptomycin, and L-glutamine. Media, pen-strep, and L-glutamine were purchased from Invitrogen. FBS was purchased from Gemini Bio-Products (#100106). […] Compound stocks (10-20 mM in anhydrous DMSO) were directly added to culture media at desired concentrations. DMSO concentration was kept constant at 0.2% between different treatment conditions. Cells were seeded in 96-well plates at ˜5000 cells per well on average, depending on each cell line's doubling time. After attachment, cells were treated with p300 inhibitors, control compounds, or DMSO for 24 h. After treatment, ^3H-thymidine (1 mCi/ml stock) was added to media at 10 μCi/ml final concentration. Cells were incubated for an additional 5 hours, then trypsinized and collected onto a filter mat using a Cell Harvester (PerkinElmer). Radioactivity was measured with a MicroBeta plate reader (PerkinElmer). Each sample was tested in triplicate.

Sas2/4/5 complex = target: T1, Sas2/4/5 complex (Saccharomyces cerevisiae, UniProt P40963); assay: SAS complex direct radioactive HAT assay; format: biochemical; conditions: 10 μM compound; read-out: Percent inhibition of acetyltransferase, Sas
T1 construct: made in house; host or cells: E. coli BL21-CodonPlus(DE3)-RIL
T1 sequence (P40963 whole entry): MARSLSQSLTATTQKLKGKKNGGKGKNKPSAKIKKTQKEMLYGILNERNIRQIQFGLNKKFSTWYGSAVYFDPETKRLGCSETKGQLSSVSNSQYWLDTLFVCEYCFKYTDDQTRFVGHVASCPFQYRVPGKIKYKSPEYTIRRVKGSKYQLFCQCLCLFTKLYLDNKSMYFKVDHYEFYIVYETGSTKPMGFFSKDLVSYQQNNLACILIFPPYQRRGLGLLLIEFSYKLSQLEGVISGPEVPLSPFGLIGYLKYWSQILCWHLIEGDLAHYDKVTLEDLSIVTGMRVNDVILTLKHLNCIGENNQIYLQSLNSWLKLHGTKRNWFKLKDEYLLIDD
T1 sequence (Q04003 whole entry partner): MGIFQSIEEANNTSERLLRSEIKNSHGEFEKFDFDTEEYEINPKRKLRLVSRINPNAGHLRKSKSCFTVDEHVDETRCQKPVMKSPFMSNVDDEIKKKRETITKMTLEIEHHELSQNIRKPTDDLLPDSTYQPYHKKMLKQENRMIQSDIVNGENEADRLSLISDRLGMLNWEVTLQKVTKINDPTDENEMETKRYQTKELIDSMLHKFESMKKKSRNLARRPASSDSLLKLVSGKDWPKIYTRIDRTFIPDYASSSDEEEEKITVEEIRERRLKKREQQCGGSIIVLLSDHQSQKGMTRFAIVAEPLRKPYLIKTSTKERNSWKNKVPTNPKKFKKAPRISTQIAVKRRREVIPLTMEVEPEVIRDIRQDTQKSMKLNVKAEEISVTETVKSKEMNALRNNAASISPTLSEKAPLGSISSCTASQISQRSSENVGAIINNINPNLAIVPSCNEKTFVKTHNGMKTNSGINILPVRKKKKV
T1 sequence (Q99314 whole entry partner): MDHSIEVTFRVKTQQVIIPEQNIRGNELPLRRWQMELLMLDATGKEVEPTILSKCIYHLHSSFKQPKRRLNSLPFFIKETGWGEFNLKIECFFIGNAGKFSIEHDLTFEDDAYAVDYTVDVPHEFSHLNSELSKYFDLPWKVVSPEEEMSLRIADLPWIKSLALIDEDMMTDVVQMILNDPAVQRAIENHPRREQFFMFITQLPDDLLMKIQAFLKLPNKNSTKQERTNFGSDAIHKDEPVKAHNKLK
Description: PCAF reactions were performed in 100 mM HEPES, pH 7.9, and contained 200 μM TPP, 5 mM MgCl2, 1 mM DTT, 50 mM NaCl, 0.05 mg/mL BSA, 200 μM NAD, 2.4 mM α-KG, 30 μM acetyl-CoA, 0.037 units α-KGDH, 3.3% DMSO, and 10 μM inhibitor. Reactions took place at 30° C. Reactions were initiated by addition of 10 nM PCAF and were followed at 340 nm over the linear portion of the curve below 10% turnover. AANAT reactions were performed in 100 mM NH4 OAc, pH 6.8, and contained 200 μM TPP, 5 mM MgCl2, 1 mM DTT, 50 mM NaCl, 0.05 mg/mL BSA, 200 μM NAD, 2.4 mM α-KG, 200 μM AcCoA, 0.1 units α-KGDH, 3.3% DMSO, and 10 μM inhibitor. Reactions took place at 25° C. Reactions were initiated with addition of 65 nM AANAT, and followed at 340 nm, as above. Percent inhibition values were compared to those with p300, which were repeated using the protocol given above. […]
HAT assays with yeast GCN5, SAS complex, MOZ, and Rtt109/Vps75 complex used the direct radioactive assay described above. […] The amount of enzyme used in each assay was estimated by comparing Coomassie Blue staining of samples with bovine serum albumin standards, analyzed by SDS-PAGE. […] The rate of ^14C-incorporation into histone H3 was quantified by autoradiography. […]

[4] = system: global histone H3 acetylation in WM983A cells; assay: histone H3 acetylation Western blot in WM983A; format: cell-based, human; conditions: 6 hours, increasing doses
Description: Cells were treated with each compound for 24 hours, and proliferation was measured via ^3H-thymidine incorporation. […] Nuclear lysates were subjected to Western blot analysis for acetylated H3 (Upstate 06-599). Total H3 (Abeam ab1791) was blotted as a loading control.

reaction with thiol (adduct formation) [1]: no evidence of reaction
inhibition at 10 µM [2]: < 10%
inhibition at 10 µM (Sas2/4/5 complex): < 10%
SMILES: CC1=NN(c2ccc(C(=O)O)cc2)C(=O)C1=Cc1ccc(-c2cc(C)c(C)cc2[N+](=O)[O-])o1 [Compound C646, 4-(4,5-dihydro-3-methyl-4-((5-(4,5-dimethyl-2-nitrophenyl)furan-2-yl)methylene)-5-oxopyrazol-1-yl)benzoic acid]
sensitization to chemotherapy (Mel-1 melanoma cells): sensitized the melanoma cells to temozolamide
3H-thymidine incorporation [3]: capable of reducing ^3H-thymidine incorporation in several of these human cancer lines
global histone H3 acetylation [4]: dose-dependent reduction
